# Test results as given in ChEMBL document CHEMBL4414638, “Structure-Activity Relationship of Peptide-Conjugated Chloramphenicol for Inhibiting Escherichia coli” (J Med Chem, 2019).
# *1 amine or outer side, *2 acyl side, *3 side chain or, on linkers, in order; H or OH if unused. Where a SMILES comes first, the peptide text is derived from it. [ ]: non-standard residue; d: D form. The star is where a group is joined. X1 = O=C(CCC(=O)[*:2])OC[C@@H](N[*:1])[C@H](O)c1ccc([N+](=O)[O-])cc1; Dichloroacetyl = O=C(C(Cl)Cl)*
# Tested on: not listed separately
# Assay: Cytotoxicity in human HS5 cells assessed as reduction in cell viability at 20 uM to 2 mM incubated up to […]rs relative to chloramphenicol
# Assay type: cell-based
# Details: not given
row,Structure (SMILES),Activity
1,O=C(O)CNC(=O)[C@H](Cc1ccccc1)NC(=O)CNC(=O)CCC(=O)OC[C@@H](NC(=O)C(Cl)Cl)[C@H](O)c1ccc([N+](=O)[O-])cc1,Non-Toxic

# Tested on: Escherichia coli
# Assay: Antibacterial activity against Escherichia coli K-12 assessed as reduction in bacterial growth incubated for 16 hrs
# Assay type: functional
# Details: K-12, 16 h
row,Structure (SMILES),MIC
1,O=C(N[C@H](CO)[C@H](O)c1ccc([N+](=O)[O-])cc1)C(Cl)Cl [CHLORAMPHENICOL],20 µM
2,O=C(O)C[C@H](NC(=O)[C@H](CC(=O)O)NC(=O)CCC(=O)OC[C@@H](NC(=O)C(Cl)Cl)[C@H](O)c1ccc([N+](=O)[O-])cc1)C(=O)O,200 µM
3,O=C(CCC(=O)OC[C@@H](NC(=O)C(Cl)Cl)[C@H](O)c1ccc([N+](=O)[O-])cc1)N[C@H](Cc1ccccc1)C(=O)N[C@H](Cc1ccccc1)C(=O)N[C@H](Cc1ccc2ccccc2c1)C(=O)O,> 200 µM
4,N=C(N)NCCC[C@@H](NC(=O)[C@@H](CCCNC(=N)N)NC(=O)CCC(=O)OC[C@@H](NC(=O)C(Cl)Cl)[C@H](O)c1ccc([N+](=O)[O-])cc1)C(=O)O,200 µM
5,O=C(O)CNC(=O)[C@H](Cc1ccccc1)NC(=O)CNC(=O)CCC(=O)OC[C@@H](NC(=O)C(Cl)Cl)[C@H](O)c1ccc([N+](=O)[O-])cc1,20 µM
6,NCCCC[C@@H](NC(=O)[C@@H](CCCCN)NC(=O)[C@@H](Cc1ccccc1)NC(=O)[C@@H](Cc1ccccc1)NC(=O)CCC(=O)OC[C@@H](NC(=O)C(Cl)Cl)[C@H](O)c1ccc([N+](=O)[O-])cc1)C(=O)O,200 µM
7,C[C@@H](NC(=O)[C@@H](C)NC(=O)[C@@H](C)NC(=O)CCC(=O)OC[C@@H](NC(=O)C(Cl)Cl)[C@H](O)c1ccc([N+](=O)[O-])cc1)C(=O)O,80 µM
8,C[C@@H](NC(=O)[C@@H](C)NC(=O)CCC(=O)OC[C@@H](NC(=O)C(Cl)Cl)[C@H](O)c1ccc([N+](=O)[O-])cc1)C(=O)O,80 µM
9,O=C(CCC(=O)OC[C@@H](NC(=O)C(Cl)Cl)[C@H](O)c1ccc([N+](=O)[O-])cc1)N[C@H](Cc1ccccc1)C(=O)N[C@H](Cc1ccccc1)C(=O)O,100 µM
10,O=C(O)CNC(=O)CNC(=O)[C@H](Cc1ccccc1)NC(=O)CCC(=O)OC[C@@H](NC(=O)C(Cl)Cl)[C@H](O)c1ccc([N+](=O)[O-])cc1,80 µM
11,O=C(O)CNC(=O)CNC(=O)[C@@H](Cc1ccc2ccccc2c1)NC(=O)[C@@H](Cc1ccccc1)NC(=O)[C@@H](Cc1ccccc1)NC(=O)CCC(=O)OC[C@@H](NC(=O)C(Cl)Cl)[C@H](O)c1ccc([N+](=O)[O-])cc1,> 200 µM
12,O=C(CCC(=O)OC[C@@H](NC(=O)C(Cl)Cl)[C@H](O)c1ccc([N+](=O)[O-])cc1)NCCOP(=O)(O)O,100 µM
13,C[C@H](NC(=O)[C@H](C)NC(=O)[C@H](C)NC(=O)CCC(=O)OC[C@@H](NC(=O)C(Cl)Cl)[C@H](O)c1ccc([N+](=O)[O-])cc1)C(=O)O,100 µM
14,C[C@@H](NC(=O)CCC(=O)OC[C@@H](NC(=O)C(Cl)Cl)[C@H](O)c1ccc([N+](=O)[O-])cc1)C(=O)O,> 200 µM
15,C[C@H](NC(=O)[C@H](C)NC(=O)CCC(=O)OC[C@@H](NC(=O)C(Cl)Cl)[C@H](O)c1ccc([N+](=O)[O-])cc1)C(=O)O,100 µM
16,O=C(O)CNC(=O)CNC(=O)CNC(=O)CNC(=O)CNC(=O)CCC(=O)OC[C@@H](NC(=O)C(Cl)Cl)[C@H](O)c1ccc([N+](=O)[O-])cc1 (Dichloroacetyl-[X1]GGGGG-OH),40 µM
17,O=C(CCC(=O)OC[C@@H](NC(=O)C(Cl)Cl)[C@H](O)c1ccc([N+](=O)[O-])cc1)NCCS(=O)(=O)O,40 µM
18,COC(=O)CCC(=O)OC[C@@H](NC(=O)C(Cl)Cl)[C@H](O)c1ccc([N+](=O)[O-])cc1,> 200 µM
19,O=C(O)C[C@@H](NC(=O)[C@@H](CC(=O)O)NC(=O)CCC(=O)OC[C@@H](NC(=O)C(Cl)Cl)[C@H](O)c1ccc([N+](=O)[O-])cc1)C(=O)O,> 200 µM
20,N=C(N)NCCC[C@@H](NC(=O)[C@@H](CCCNC(=N)N)NC(=O)[C@@H](Cc1ccccc1)NC(=O)[C@@H](Cc1ccccc1)NC(=O)CCC(=O)OC[C@@H](NC(=O)C(Cl)Cl)[C@H](O)c1ccc([N+](=O)[O-])cc1)C(=O)O,200 µM
21,O=C(O)CC[C@@H](NC(=O)[C@@H](CCC(=O)O)NC(=O)CCC(=O)OC[C@@H](NC(=O)C(Cl)Cl)[C@H](O)c1ccc([N+](=O)[O-])cc1)C(=O)O,> 200 µM

# Tested on: HEK293
# Assay: Cytotoxicity in human HEK293 cells assessed as reduction in cell viability at 20 uM […] relative to chloramphenicol
# Assay type: cell-based
# Details: hek293, 20 µM
row,Structure (SMILES),Activity
1,O=C(N[C@H](CO)[C@H](O)c1ccc([N+](=O)[O-])cc1)C(Cl)Cl [CHLORAMPHENICOL],Toxic
2,O=C(O)CNC(=O)[C@H](Cc1ccccc1)NC(=O)CNC(=O)CCC(=O)OC[C@@H](NC(=O)C(Cl)Cl)[C@H](O)c1ccc([N+](=O)[O-])cc1,Toxic
